Literature values, collected in patent publication US20210046025A1, “Injection for Protecting Ischemic Myocardium and Preparation Method thereof” (priority 2018, published 2021).

Columns and labels:
[1] = test system: ischemia/reperfusion myocardial infarction; conditions: large animal models, clinically relevant reperfusion (Min Xie et al., Circulation 2014)
[2] = first-pass metabolism elimination

O=C(CCCCCCC(=O)Nc1ccccc1)NO [N-suberoylanilide hydroxamic acid]
Effect on myocardial infarction area [1]: reduce myocardial infarction area | Oral bioavailability [2]: very low | Solubility in oil and water: insoluble in both oil and water | Water solubility: poor
